# From US20210220370A1, “SELECTIVE HDAC8 INHIBITORS AND THEIR USES” (HOCHSCHULE DARMSTADT, priority 2015, published 2021)
# Experiments:
# HDAC2 = HDAC2 (Homo sapiens, UniProt Q92769); experiment: HDAC2 colorimetric assay, substrate Boc-Lys(Ac)-AMC; assay type: biochemical; details: Table 1
# HDAC3 = HDAC3 (Homo sapiens, UniProt O15379); experiment: HDAC3 colorimetric assay, substrate Boc-Lys(Ac)-AMC; assay type: biochemical; details: Table 1
# HDAC4 = HDAC4 (Homo sapiens, UniProt P56524); assay type: biochemical; details: Table 1
# Chain of HDAC4 (P56524 whole entry): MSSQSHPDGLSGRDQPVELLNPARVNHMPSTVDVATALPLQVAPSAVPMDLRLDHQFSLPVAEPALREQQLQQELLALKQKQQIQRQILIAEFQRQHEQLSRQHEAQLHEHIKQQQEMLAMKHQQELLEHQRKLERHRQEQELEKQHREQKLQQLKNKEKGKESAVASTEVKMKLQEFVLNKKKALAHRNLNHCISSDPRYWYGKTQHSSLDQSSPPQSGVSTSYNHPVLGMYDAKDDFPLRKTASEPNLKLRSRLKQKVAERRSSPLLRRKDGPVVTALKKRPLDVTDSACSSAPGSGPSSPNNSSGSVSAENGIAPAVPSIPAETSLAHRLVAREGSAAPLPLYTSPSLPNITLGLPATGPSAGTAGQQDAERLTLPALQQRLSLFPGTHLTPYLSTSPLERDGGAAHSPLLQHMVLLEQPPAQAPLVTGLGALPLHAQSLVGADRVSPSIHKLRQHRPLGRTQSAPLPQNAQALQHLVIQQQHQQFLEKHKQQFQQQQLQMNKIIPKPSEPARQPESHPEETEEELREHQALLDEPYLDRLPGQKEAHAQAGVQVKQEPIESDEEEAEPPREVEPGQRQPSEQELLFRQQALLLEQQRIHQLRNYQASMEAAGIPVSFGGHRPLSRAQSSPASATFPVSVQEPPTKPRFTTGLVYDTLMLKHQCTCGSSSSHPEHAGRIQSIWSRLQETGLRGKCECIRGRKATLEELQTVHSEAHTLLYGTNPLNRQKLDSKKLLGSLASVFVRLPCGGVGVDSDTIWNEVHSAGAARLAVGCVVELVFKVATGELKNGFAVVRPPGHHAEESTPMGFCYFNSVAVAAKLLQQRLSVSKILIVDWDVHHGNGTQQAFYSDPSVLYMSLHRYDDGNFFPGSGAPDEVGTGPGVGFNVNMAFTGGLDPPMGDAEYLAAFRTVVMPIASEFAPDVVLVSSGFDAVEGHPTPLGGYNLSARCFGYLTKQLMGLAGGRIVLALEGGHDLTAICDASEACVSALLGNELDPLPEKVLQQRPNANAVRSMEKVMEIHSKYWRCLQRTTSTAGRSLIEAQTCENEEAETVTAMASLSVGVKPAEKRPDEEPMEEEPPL
# HDAC6 = biological target: T1, HDAC6 (Homo sapiens, UniProt Q9UBN7); experiment: HDAC6 colorimetric assay, substrate Boc-Lys(Ac)-AMC; assay type: biochemical; details: Table 1; read-out: IC50 HDAC6
# T1 sequence (Q9UBN7 1-1215): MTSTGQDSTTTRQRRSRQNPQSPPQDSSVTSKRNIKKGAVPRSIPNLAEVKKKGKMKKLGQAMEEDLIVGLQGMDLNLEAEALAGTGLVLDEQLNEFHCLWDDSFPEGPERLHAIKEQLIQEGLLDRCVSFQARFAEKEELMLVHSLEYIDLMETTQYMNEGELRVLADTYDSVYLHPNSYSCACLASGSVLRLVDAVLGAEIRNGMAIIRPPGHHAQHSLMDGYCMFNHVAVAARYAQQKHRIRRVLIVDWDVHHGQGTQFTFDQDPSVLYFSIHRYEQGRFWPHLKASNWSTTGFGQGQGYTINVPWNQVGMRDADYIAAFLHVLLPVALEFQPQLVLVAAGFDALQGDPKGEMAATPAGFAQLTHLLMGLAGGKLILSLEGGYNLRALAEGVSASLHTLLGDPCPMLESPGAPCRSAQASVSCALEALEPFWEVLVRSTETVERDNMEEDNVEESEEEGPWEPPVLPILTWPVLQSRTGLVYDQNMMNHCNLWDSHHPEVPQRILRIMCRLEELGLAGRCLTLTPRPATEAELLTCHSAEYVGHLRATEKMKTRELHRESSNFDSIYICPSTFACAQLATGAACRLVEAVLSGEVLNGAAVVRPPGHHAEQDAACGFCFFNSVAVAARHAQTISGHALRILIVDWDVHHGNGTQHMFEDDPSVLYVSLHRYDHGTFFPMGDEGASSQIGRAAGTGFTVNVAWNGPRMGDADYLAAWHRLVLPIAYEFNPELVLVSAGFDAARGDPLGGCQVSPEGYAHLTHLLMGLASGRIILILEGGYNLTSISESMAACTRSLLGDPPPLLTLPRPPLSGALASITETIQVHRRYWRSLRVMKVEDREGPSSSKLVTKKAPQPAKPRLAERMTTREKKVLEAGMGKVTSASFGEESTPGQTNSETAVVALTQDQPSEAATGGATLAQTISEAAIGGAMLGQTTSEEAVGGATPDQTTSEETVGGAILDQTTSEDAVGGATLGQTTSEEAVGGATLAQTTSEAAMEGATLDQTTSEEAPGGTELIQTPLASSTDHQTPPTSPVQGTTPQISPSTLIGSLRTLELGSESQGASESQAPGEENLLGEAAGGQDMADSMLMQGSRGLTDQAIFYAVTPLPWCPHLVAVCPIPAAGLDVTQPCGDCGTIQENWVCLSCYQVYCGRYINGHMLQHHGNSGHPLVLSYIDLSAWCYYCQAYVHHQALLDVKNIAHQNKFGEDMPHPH
# [1] = test system: uterine leiomyosarcoma cell line SKUT-1; experiment: Growth inhibition of cancer cell line, resazurin assay; assay type: cell-based, Human; details: Homo sapiens, SK-UT-1; Table 2, resazurin assay
# [2] = test system: breast cancer cell line MCF-7; experiment: as above; assay type: cell-based, Human; details: Homo sapiens, MCF7; Table 2, resazurin assay
# HDAC1 = HDAC1 (Homo sapiens, UniProt Q13547); experiment: HDAC1 colorimetric assay, substrate Boc-Lys(Ac)-AMC
# Chain of HDAC1 (Q13547 whole entry): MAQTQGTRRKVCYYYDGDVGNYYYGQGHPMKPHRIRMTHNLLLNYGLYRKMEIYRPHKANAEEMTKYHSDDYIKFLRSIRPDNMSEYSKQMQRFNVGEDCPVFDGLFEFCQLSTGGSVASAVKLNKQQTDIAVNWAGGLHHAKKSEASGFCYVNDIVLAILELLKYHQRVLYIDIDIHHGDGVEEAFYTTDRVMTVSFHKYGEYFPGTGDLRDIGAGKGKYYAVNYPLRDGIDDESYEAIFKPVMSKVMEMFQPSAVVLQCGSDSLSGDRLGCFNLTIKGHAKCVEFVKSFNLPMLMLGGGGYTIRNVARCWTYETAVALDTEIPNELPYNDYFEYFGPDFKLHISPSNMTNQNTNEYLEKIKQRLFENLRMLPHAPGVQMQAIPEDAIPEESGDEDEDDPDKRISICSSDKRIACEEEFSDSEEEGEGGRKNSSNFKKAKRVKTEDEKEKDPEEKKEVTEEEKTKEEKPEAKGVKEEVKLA
# Method: 1 nM of HDAC1 was incubated with increasing concentrations of the respective compound for 30 minutes at 30° C. The reaction was initiated by addition of 50 μM of the substrate Boc-Lys(Ac)-AMC. After an incubation of 60 minutes the reaction was stopped by addition of 20 μM SAHA and the deacetylated substrate was converted into a fluorescent product by the addition of trypsin.
# HDAC5 = HDAC5 (Homo sapiens, UniProt Q9UQL6); experiment: HDAC5 colorimetric assay, substrate Boc-Lys(TFA)-AMC
# Chain of HDAC5 (Q9UQL6 whole entry): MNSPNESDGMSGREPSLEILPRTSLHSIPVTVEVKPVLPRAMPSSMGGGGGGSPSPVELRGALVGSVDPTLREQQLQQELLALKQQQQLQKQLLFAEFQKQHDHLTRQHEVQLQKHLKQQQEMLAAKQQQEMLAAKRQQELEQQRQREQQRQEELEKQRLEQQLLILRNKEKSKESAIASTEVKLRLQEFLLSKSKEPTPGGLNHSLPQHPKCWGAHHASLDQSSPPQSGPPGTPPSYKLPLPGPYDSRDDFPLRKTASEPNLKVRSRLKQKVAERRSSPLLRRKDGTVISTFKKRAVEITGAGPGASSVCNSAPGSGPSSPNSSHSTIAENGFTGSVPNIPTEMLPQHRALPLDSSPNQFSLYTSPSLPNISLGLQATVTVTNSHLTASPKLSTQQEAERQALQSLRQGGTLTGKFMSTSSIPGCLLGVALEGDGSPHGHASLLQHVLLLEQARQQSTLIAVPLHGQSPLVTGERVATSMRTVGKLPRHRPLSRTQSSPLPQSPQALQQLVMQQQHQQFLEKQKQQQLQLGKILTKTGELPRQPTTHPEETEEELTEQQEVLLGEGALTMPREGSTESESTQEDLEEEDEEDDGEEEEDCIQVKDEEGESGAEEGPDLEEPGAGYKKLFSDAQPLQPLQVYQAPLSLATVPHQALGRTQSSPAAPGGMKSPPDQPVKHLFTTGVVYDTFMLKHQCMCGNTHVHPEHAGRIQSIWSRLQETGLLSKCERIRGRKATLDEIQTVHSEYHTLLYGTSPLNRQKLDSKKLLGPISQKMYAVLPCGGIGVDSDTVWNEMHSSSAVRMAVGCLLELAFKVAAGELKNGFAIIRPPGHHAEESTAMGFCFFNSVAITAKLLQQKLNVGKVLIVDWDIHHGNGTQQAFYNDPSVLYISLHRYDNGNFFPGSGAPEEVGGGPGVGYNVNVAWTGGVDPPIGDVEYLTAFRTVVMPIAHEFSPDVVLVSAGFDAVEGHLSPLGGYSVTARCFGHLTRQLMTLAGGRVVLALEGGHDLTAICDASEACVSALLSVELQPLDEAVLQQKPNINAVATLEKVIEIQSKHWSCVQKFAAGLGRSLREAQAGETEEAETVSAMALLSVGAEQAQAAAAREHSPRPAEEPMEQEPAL
# HDAC7 = biological target: T2, HDAC7 (Homo sapiens, UniProt Q8WUI4); experiment: HDAC7 colorimetric assay, substrate Boc-Lys(TFA)-AMC
# T2 sequence (Q8WUI4 1-952): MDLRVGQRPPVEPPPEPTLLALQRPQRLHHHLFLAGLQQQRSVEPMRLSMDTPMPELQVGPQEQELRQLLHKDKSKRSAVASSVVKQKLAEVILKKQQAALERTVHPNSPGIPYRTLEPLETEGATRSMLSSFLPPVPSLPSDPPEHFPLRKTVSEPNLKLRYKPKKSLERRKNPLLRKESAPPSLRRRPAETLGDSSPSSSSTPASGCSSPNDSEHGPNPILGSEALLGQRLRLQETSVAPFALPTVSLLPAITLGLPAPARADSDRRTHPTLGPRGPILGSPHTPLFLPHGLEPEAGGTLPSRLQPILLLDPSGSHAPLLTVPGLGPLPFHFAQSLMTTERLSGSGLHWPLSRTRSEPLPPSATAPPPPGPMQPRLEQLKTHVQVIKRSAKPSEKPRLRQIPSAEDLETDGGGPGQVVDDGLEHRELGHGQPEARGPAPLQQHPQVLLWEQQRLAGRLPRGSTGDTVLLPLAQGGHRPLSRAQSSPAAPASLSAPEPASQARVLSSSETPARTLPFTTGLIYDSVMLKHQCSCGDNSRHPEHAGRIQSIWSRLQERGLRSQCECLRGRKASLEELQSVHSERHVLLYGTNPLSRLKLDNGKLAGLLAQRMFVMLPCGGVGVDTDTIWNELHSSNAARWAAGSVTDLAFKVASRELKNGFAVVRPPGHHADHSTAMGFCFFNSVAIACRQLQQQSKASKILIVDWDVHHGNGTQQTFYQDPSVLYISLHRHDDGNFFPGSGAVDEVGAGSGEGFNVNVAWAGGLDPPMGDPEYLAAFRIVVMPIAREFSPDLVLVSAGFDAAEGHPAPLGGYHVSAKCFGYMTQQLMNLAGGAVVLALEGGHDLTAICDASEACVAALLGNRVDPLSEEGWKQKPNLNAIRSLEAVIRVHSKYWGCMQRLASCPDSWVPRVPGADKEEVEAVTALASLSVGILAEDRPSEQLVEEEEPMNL
# HDAC8 = biological target: T3, HDAC8 (Homo sapiens, UniProt Q9BY41); experiment: HDAC8 colorimetric assay, substrate Boc-Lys(TFA)-AMC
# T3 sequence (Q9BY41 1-377): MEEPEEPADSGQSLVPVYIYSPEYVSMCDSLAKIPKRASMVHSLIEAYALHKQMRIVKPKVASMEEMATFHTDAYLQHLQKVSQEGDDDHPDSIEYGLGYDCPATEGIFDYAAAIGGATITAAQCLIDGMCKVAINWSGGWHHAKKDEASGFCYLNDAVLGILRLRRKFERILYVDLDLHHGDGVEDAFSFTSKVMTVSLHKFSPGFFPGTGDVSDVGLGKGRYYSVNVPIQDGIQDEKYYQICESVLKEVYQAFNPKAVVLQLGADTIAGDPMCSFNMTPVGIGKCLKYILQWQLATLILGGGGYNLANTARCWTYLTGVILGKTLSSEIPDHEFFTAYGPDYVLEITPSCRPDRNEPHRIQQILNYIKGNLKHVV
# Method: 1 nM of HDAC4 was incubated with increasing concentrations of the respective compound for 30 minutes at 30° C. The reaction was initiated by addition of 20 μM of the substrate Boc-Lys(trifluoracetyl)-AMC. After an incubation of 60 minutes the reaction was stopped by addition of 20 μM SAHA and the deacetylated substrate was converted into a fluorescent product by the addition of trypsin.
# [3] = test system: T cell leukemia cell line JURKAT; experiment: Growth inhibition of cancer cell line, resazurin assay; details: Homo sapiens, Jurkat, read-out: GI50 JURKAT
# Method: The following tumor cell lines were used: • Human uterine leiomyosarcoma cell line SKUT-1 (ATCC® HTB114™) • Human T cell leukemia cell line JURKAT (ATCC® TIB152™) • Human breast cancer cell line MCF-7 (ATCC® HTB22™)
# Cells were cultured in Dulbecco's modified Eagle's medium (DMEM) supplemented with 10% FCS.
# [4] = IC50 for HDAC1, FIG. 3, 50 μM Boc-Lys(Ac)-AMC
# [5] = IC50 for HDAC7, FIG. 3, 20 μM Boc-Lys(TFA)-AMC
# [6] = IC50 for HDAC8, FIG. 3, 20 μM Boc-Lys(TFA)-AMC
# Chain of HDAC3 (O15379 whole entry): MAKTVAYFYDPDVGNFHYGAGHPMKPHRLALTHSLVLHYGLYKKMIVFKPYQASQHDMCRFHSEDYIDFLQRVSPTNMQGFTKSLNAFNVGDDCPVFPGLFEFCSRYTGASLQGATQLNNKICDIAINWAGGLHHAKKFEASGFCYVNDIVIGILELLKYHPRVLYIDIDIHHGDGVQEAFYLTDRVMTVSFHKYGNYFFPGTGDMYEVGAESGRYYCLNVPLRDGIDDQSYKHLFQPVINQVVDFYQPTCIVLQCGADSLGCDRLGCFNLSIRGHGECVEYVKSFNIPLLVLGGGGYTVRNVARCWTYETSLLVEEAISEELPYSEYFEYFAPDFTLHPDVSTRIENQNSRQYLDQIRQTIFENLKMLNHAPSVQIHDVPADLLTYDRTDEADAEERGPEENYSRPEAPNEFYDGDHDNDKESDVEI
# Chain of HDAC3 (Q9Y618 395-489 partner limits assumed): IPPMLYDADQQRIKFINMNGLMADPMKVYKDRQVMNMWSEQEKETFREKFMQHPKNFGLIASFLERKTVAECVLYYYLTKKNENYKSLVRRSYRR
# Chain of HDAC2 (Q92769 whole entry): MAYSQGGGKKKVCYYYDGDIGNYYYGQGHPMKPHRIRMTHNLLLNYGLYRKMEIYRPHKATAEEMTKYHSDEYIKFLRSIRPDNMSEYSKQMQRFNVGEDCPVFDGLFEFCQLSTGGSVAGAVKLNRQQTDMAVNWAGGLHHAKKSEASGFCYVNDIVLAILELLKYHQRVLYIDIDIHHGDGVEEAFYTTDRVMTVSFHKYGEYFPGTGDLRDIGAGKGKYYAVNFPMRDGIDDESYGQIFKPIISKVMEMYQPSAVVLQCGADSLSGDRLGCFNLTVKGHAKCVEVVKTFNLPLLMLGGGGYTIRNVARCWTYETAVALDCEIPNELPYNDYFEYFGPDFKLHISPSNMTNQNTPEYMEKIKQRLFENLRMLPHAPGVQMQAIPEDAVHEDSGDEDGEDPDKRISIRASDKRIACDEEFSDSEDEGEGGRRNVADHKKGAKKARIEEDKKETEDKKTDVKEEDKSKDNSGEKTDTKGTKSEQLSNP
IC50 (HDAC2) [µM],IC50 (HDAC3) [µM],IC50 (HDAC4) [µM],IC50 (HDAC6) [µM],GI50 [1] [µM],GI50 [2] [µM],"IC50 (HDAC1; IC50 HDAC1, Table 1) [µM]",IC50 (HDAC5) [µM],"IC50 (HDAC7; IC50 HDAC7, Table 1) [µM]","IC50 (HDAC8; IC50 HDAC8, Table 1) [µM]",GI50 [3] [µM],IC50 (HDAC1; [4]) [µM],IC50 (HDAC7; [5]) [µM],IC50 (HDAC8; [6]) [µM],Compound
> 50,> 50,5.1 ± 0.6,5.2 ± 1.1,> 1000,> 1000,35 ± 3,0.74 ± 0.16,5 ± 1,0.017 ± 0.001,42 ± 3,–,–,–,"N=C1Sc2c(F)cccc2C2=NCCCN12 [Compound 13h, 8-Fluoro-3,4-dihydrobenzo[e]pyrimido[1,2-c][1,3]thiazin-6(2H)-imine]"
> 50,> 50,> 50,32 ± 18,64 ± 7,60 ± 6,21 ± 1,13,0.5 ± 0.2,0.18 ± 0.02,67 ± 8,20,0.51,0.2,"N=C1Sc2ccc(Cl)cc2C2=NCCN12 [Compound 13c, 9-Chloro-2H-Benzo[e]Imidazo[1,2-c][1,3]Thiazin-5(3H)-Imine]"
> 50,> 50,> 50,> 50,109 ± 29,16 ± 3,> 50,> 50,> 50,9.2 ± 0.3,24 ± 3,–,–,–,"N=C1Sc2c(F)cccc2C2=NCCN12 [Compound 13i, 7-Fluoro-2H-Benzo[e]Imidazo[1,2-c][1,3]Thiazin-5(3H)-Imine]"
> 50,6.7 ± 0.4,2 ± 0.1,2.8 ± 0.7,76 ± 7,> 1000,1.7 ± 0.2,0.14 ± 0.02,1.7 ± 0.2,0.0029 ± 0.0001,30 ± 3,–,–,–,"N=C1Sc2cc(Br)ccc2C2=NCCCN12 [Compound 13g, 9-Bromo-3,4-Dihydrobenzo[e]Pyrimido[1,2-c][1,3]Thiazin-6(2H)-Imine]"
> 50,> 50,> 50,> 50,343 ± 191,213 ± 50,> 50,> 50,1.3 ± 0.7,4.4 ± 0.8,558 ± 342,–,–,–,"N=C1Sc2ccccc2C2=NCCN12 [Compound 13b, 2H-Benzo[e]Imidazo[1,2-c][1,3]Thiazin-5(3H)-Imine]"
> 50,9.6 ± 0.7,3.2 ± 0.5,1.3 ± 0.3,35 ± 2,179 ± 66,3.7 ± 0.4,0.038 ± 0.002,1.3 ± 0.2,0.0043 ± 0.0005,23 ± 2,–,–,–,"Cc1cccc2c1C1=NCCCN1C(=N)S2 [Compound 13m, 11-Methyl-3,4-Dihydrobenzo[e]Pyrimido[1,2-c][1,3]Thiazin-6(2H)-Imine]"
> 50,> 50,> 50,14 ± 1,106 ± 21,200 ± 58,–,12,2 ± 0.5,0.072 ± 0.003,153 ± 28,34,2.1,0.071,"CN(C)c1ccc2c(c1)SC(=N)N1CCCN=C21 [Compound 13d, 6-Imino-N,N-Dimethyl-2,3,4,6-Tetrahydrobenzo[e]Pyrimido[1,2-c][1,3]Thiazin-9-Imine]"
> 50,10 ± 0.56,2.84 ± 0.13,9 ± 4,147 ± 73,> 1000,2.9 ± 0.3,0.17 ± 0.02,2.6 ± 0.4,0.0041 ± 0.0002,33 ± 3,–,–,–,"N=C1Sc2cc(F)ccc2C2=NCCCN12 [Compound 13f, 9-Fluoro-3,4-Dihydrobenzo[e]Pyrimido[1,2-c][1,3]Thiazin-6(2H)-Imine]"
